Laboratory results reported in publication PMC8426472 (Molecular Therapy. Methods & Clinical Development, 2021).

Assays:
[1] = cited from earlier work
[2] = system: GS-GDNF vector; assay: Striatal GDNF induction from AAV-5-GS-GDNF vector after Mfp application; type: in vivo, rat
[3] = Brain Mfp levels in cynomolgus monkeys; type: in vivo, cynomolgus macaques (Macaca fascicularis); details: monkey #1 versus monkeys #2 and #3, repeated oral Rtv 60 mg/kg + Mfp 100 mg/kg
[4] = cited from earlier work; remark: listed apart in the source
[5] = Brain tissue Mfp levels in rats; type: in vivo, rat; details: 3 × 20 mg/kg i.p., t = 144 h
[6] = cited from earlier work; remark: listed apart in the source
[7] = cited from earlier work; remark: listed apart in the source
[8] = system: ORM2-derived AAG variants; details: cited from earlier work
[9] = system: ORM1S; details: cited from earlier work
[10] = Plasma Mfp levels in hAAG-expressing; type: in vivo, rat
[11] = system: ORM1F1; details: cited from earlier work
[12] = system: ORM1F2; details: cited from earlier work
[13] = Plasma Mfp levels in rats; type: in vivo, rat
[14] = cited from earlier work; remark: listed apart in the source
[15] = Plasma Mfp levels in cynomolgus monkeys; type: in vivo, cynomolgus macaques (Macaca fascicularis)

CC(C)c1nc(CN(C)C(=O)N[C@H](C(=O)N[C@@H](Cc2ccccc2)C[C@H](O)[C@H](Cc2ccccc2)NC(=O)OCc2cncs2)C(C)C)cs1 [Rtv, ritonavir]
metabolic effects: insulin resistance [1]: moderate increase | boost of GDNF induction by Rtv, female rats ([2]; female rats, Rtv 30 mg/kg i.p. + 3 x 5 mg/kg Mfp i.p.): about 10 fold | boost of GDNF induction by Rtv, male rats ([2]; male rats, Rtv 30 mg/kg i.p. + 3 x 5 mg/kg Mfp i.p.): about 40 fold

CC#C[C@]1(O)CC[C@H]2[C@@H]3CCC4=CC(=O)CCC4=C3[C@@H](c3ccc(N(C)C)cc3)C[C@@]21C [Mfp, mifepristone]
difference in brain Mfp levels after the same dosage [3]: 6- to 7 fold | bioavailability in rats [4]: 40% | clearance in rats [4]: 2.7 L/h/kg body weight | plasma half-life (T1/2) in rats [4]: 4 h | Mfp levels in brain tissue, native vs hAAG-expressing animals [5]: equal | bioavailability in monkeys [6]: 15% | solubility in water [7]: very low | binding of Mfp by ORM2-derived AAG variants [8]: only weakly | binding of Mfp by ORM1S [9]: high affinity | plasma Mfp levels in hAAG-expressing vs native animals at 50 h and 72 h ([10]; 3 × 20 mg/kg Mfp i.p.): significantly elevated | plasma Mfp level at 48 h, hAAG-expressing rats ([10]; single oral dose 50 mg/kg): still at maximum level | plasma Mfp level at 72 h, hAAG-expressing rats ([10]; single oral dose 50 mg/kg): about one-third of maximum levels | binding of Mfp by ORM1F1 [11]: high affinity | binding of Mfp by ORM1F2 [12]: only low affinity | AUC ([13]; female, Wistar, rat, plasma, ip, AUC for plasma Mfp, − Rtv, female rats, 3 x 5 mg/kg Mfp i.p., without Rtv): 8200 ng·h/mL | drop of plasma Mfp levels at 48 h, native rats ([13]; native rats, single oral dose 50 mg/kg): over 80% | peak plasma levels ([13]; rats, 3 × 5 mg/kg Mfp i.p.): about 150 ng/mL | peak plasma levels, corresponding molar concentration ([13]; rats, 3 × 5 mg/kg Mfp i.p.): about 0.3 μM | bioavailability in humans [14]: 40% | clearance in human [14]: 0.04 L/h/kg body weight | plasma half-life (T1/2) in human [14]: 30 h | peak plasma Mfp level without Rtv ([15]; male cynomolgus monkeys, single oral 50 mg/kg Mfp): 55 ng/mL | peak plasma Mfp level with Rtv co-application ([15]; male cynomolgus monkeys, single oral 50 mg/kg Mfp + 30 mg/kg Rtv): 150 ng/mL | AUC ([15]; male, cynomolgus monkey, plasma, po, 50 mg/kg): 655 ng·h/mL | plasma Mfp levels on all 3 days ([15]; monkeys #2 and #3, oral Mfp 100 mg/kg + Rtv 60 mg/kg on 3 consecutive days): exceeding 500 ng/mL | effect of hAAG on GS-GDNF activation at lower dosage ([2]; 3 × 5 mg/kg Mfp i.p., hAAG-expressing vs native rats): no negative effect | striatal GDNF levels in hAAG-expressing vs native animals ([2]; 3 × 20 mg/kg Mfp i.p.): similar | induced GDNF levels in aged (15 months) as compared to young (2 months) animals ([2]; female and male rats, 3 × 20 mg/kg Mfp i.p.): 7–8 times | striatal GDNF level, only Mfp, females ([2]; female rats, 3 x 5 mg/kg Mfp i.p., no Rtv): about 350 pg/mg | striatal GDNF level without Rtv co-application ([2]; female rats, 3 x 20 mg/kg Mfp i.p.): about 2,000 pg/mg tissue | striatal GDNF level after co-application of Rtv ([2]; female rats, 3 x 20 mg/kg Mfp i.p., Rtv 30 mg/kg i.p. or orally): about 4,000 pg/mg tissue | GDNF levels obtained with different solvent/carrier ([2]; female rats, oral 3 x 50 mg/kg pure substance in EtOH, sesame oil or ASV): very similar | striatal GDNF level, Mfp + Rtv ([2]; male and female rats, 3 x 5 mg/kg Mfp i.p. + Rtv 30 mg/kg i.p.): about 4,000 pg/mg tissue | striatal GDNF level, only Mfp, males ([2]; male rats, 3 x 5 mg/kg Mfp i.p., no Rtv): about 100 pg/mg
